Results as given in publication PMC12040169 (PLOS Biology, 2025).

assay: in vitro; conditions: human, hela cells, % viability

| SMILES | viability at 28.5 h, 10 µM [%] |
| --- | --- |
| O=C1CCN(Cc2ccccc2)CCN1C(=O)c1cccs1 [CBK284828] | 88.8 |
| CCC(CC)C(=O)N1CCN(Cc2ccccc2)CCC1=O [CBK284830] | 87.9 |
| COCCCNC(=O)Cn1cccc2cc(-c3ccc(F)cc3)nc1-2 [CBK284834] | 93.4 |
| Cc1ncc(CN2CCCC(O)(c3ccc(F)cc3)CC2)n1C (stereo not shown) [CBK284836] | 89.6 |
| CC1CC1C(=O)NCCc1c[nH]c2cccc(C3(O)CCOCC3)c12 (stereo not shown) [CBK284840] | 95.7 |
| O=C(CCn1c(C(F)(F)F)cc2cccnc21)NCc1ccncc1 [CBK284841] | 90.5 |
| Cc1cc(C2CCCCCN2C(=O)c2c(C)noc2C)on1 (stereo not shown) [CBK284844] | 90 |
| Cc1cc(C2CCCCCN2C(=O)c2c(C)noc2C)no1 (stereo not shown) [CBK284845] | 85.1 |
| COCC(=O)NC1CCN(CC2(c3ccccc3F)CCCC2)CC1 [CBK284850] | 114 |
| Cc1cc(C)n(CCCC(=O)N2CCc3ncc(Cl)cc3C2)n1 [CBK284852] | 103 |
| Cc1cc(C(F)F)nn1CC(=O)N1CCc2ncc(Cl)cc2C1 [CBK284853] | 108 |
| O=C(c1cc(C2CC2)on1)N1CCc2ncc(Cl)cc2C1 [CBK284855] | 106 |
| CC(C)NC(=O)Cn1c(-c2ccc(F)cc2)cc2cccnc21 [CBK284862] | 107 |
| COCC(C)NC(=O)Cn1c(-c2ccc(F)cc2)cc2cccnc21 (stereo not shown) [CBK284863] | 113 |
| O=C(CCn1c(C(F)(F)F)cc2cccnc21)NC1CCCC1 [CBK284864] | 103 |
| O=C(CCn1c(C(F)(F)F)cc2cccnc21)NC1CCCOC1 (stereo not shown) [CBK284867] | 109 |
| CN1CC(C(=O)N2CCC(c3cc4ccccc4cn3)CC2)CC1=O (stereo not shown) [CBK284870] | 96.8 |
| Cc1ccc(CN2CCCC(n3c(=O)oc4ccccc43)C2)o1 (stereo not shown) [CBK284871] | 95.6 |
| Cc1ccc2c(c1)C(NC(=O)C1CC1C)CC1(CCOCC1)O2 (stereo not shown) [CBK284880] | 91.8 |
| Cc1cc(C[C@@H]2COC[C@H]2NCCc2ccccc2)on1 [CBK284882] | 95.5 |
| Cc1cc(C[C@@H]2COC[C@H]2NCc2ccc(C)c(C)c2)on1 [CBK284883] | 106 |

| SMILES | viability at 28.5 h, 10 µM [%] |
| --- | --- |
| Cc1cc(C[C@@H]2COC[C@H]2NCc2ccc(C(C)C)cc2)on1 [CBK284884] | 107 |
| O=C(CCn1c(C(F)(F)F)cc2cccnc21)N1CCC(O)CC1 [CBK284887] | 89.7 |
| O=C1NC[C@]2(CC[C@@H](C(=O)NC3CC3)CC2)Oc2ccc(Cl)cc21 [CBK284889] | 94.2 |
| CN(C)[C@@H]1CN(Cc2ccccc2O)C[C@H]1c1cn(C)c2ccccc12 [CBK284895] | 88.3 |
| Cn1nc(C2CCN(C(=O)C3CCCCC3)CC2)c2cccnc21 [CBK284897] | 78.6 |
| Cn1nc(C2CCN(C(=O)C3CCCC3)CC2)c2cccnc21 [CBK284899] | 101 |
| O=C(c1ccccc1F)N1CCC(c2n[nH]c3ncccc23)CC1 [CBK284903] | 91.7 |
| O=C(c1cccs1)N1CCC(c2n[nH]c3ncccc23)CC1 [CBK284904] | 92.3 |
| O=C(C1CCCCC1)N1CCC(c2n[nH]c3ncccc23)CC1 [CBK284905] | 85.7 |
| O=C(CCc1ccccc1)N1CCC(c2n[nH]c3ncccc23)CC1 [CBK284906] | 94.3 |
| O=C(Cc1ccccc1F)N1CCC(c2n[nH]c3ncccc23)CC1 [CBK284908] | 89.6 |
| Cc1ccnn1CCC(=O)N1CCC(c2cc3cccnc3[nH]2)CC1 [CBK284912] | 95.2 |
| Cc1cc(C(=O)N2CCCCCC2c2c(Cl)cnn2C)on1 (stereo not shown) [CBK284916] | 99.3 |
| Cc1noc(C)c1C(=O)N1CCCCCC1c1ccn(C)n1 (stereo not shown) [CBK284917] | 90.8 |
| CCCc1cc(C2CCCCCN2C(=O)c2c(C)noc2C)no1 (stereo not shown) [CBK284919] | 87.7 |
| CN(C)C[C@H]1CC[C@]2(CC1)CN(C(=O)C1CC1)Cc1ccccc1O2 [CBK284920] | 101 |
| CCOC(=O)C1(Cc2cc(-c3ccccc3)no2)CCNCC1 [CBK284924] | 111 |
| CCC(CC)C(=O)N1CCCC(c2cc3cccnc3[nH]2)C1 (stereo not shown) [CBK284926] | 100 |
| Cc1ccn(CCC(=O)N2CCCC(c3cc4cccnc4[nH]3)C2)n1 (stereo not shown) [CBK284927] | 99.7 |
| Cn1nccc1C(=O)N1CCCC(c2cc3cccnc3[nH]2)C1 (stereo not shown) [CBK284929] | 92.7 |
| CC(C)NC(=O)CCn1c(-c2ccncc2)cc2cccnc21 [CBK284931] | 111 |

| SMILES | viability at 28.5 h, 10 µM [%] |
| --- | --- |
| Cc1cc(C[C@@H]2CCC[C@H]2NCc2ccncc2)on1 [CBK284934] | 98.6 |
| Cc1ccc(O)c(CN[C@@H]2CCC[C@H]2Cc2cc(C)no2)c1 [CBK284936] | 101 |
| O=C(CC1CCCC1)N1CCCC(c2cc3cccnc3[nH]2)C1 (stereo not shown) [CBK284940] | 98.6 |
| O=C(C1CCOCC1)N1CCCC(c2cc3cccnc3[nH]2)C1 (stereo not shown) [CBK284941] | 109 |
| Cn1nc(C2CCN(C(=O)CC3CCCC3)CC2)c2cccnc21 [CBK284943] | 111 |
| Cc1ccccc1C(=O)N1CCC(O)(Cn2ccnc2C)CC1 [CBK284950] | 105 |
| CN(C)[C@@H]1CN(Cc2ccc(O)cc2)C[C@H]1c1cn(C)c2ccccc12 [CBK284952] | 108 |
| Cc1nc(C)c(C(=O)N2C3CCC2c2cc(Cl)cnc2C3)s1 (stereo not shown) [CBK284953] | 103 |
| Cc1nccn1CC1(O)CCN(CC(C)c2ccccc2)CC1 (stereo not shown) [CBK284954] | 107 |
| CCCn1ncc(CN2CCCC(c3cc4cccnc4[nH]3)C2)c1C (stereo not shown) [CBK284957] | 95.1 |
| CN1CC(C(=O)N2CCCC(c3cc4cccnc4[nH]3)C2)CC1=O (stereo not shown) [CBK284958] | 92.5 |
| O=C(CCCn1ccnc1)N1CCCC(c2cc3cccnc3[nH]2)C1 (stereo not shown) [CBK284959] | 107 |
| O=C(CCn1c(C(F)(F)F)cc2cccnc21)N1CCCC1 [CBK284962] | 106 |
| O=C(CCn1c(-c2ccccn2)cc2cccnc21)NC1CCCC1 [CBK284965] | 98.3 |
| CC(=O)NC(c1nccs1)C1CCCN(C(=O)C2CCCC2)C1 (stereo not shown) [CBK284966] | 101 |
| CC(C)c1cc(C(=O)N2CCCCCC2c2cnn(C)c2)no1 (stereo not shown) [CBK284971] | 108 |
| Cn1ncc(Cl)c1C1CCCCCN1C(=O)c1cc(C2CC2)on1 (stereo not shown) [CBK284973] | 102 |
| O=C(C1CCCO1)N1CCCC(c2cc3cccnc3[nH]2)C1 (stereo not shown) [CBK284978] | 101 |
| O=C(C1CCCC1)N1CCCC(c2cc3cccnc3[nH]2)C1 (stereo not shown) [CBK284979] | 105 |
| CC1CN(C(=O)CCn2c(C(F)F)cc3cccnc32)CC(C)O1 (stereo not shown) [CBK284984] | 95.3 |
| Cc1cc(C(=O)N2CCC(c3nn(C)c4ncccc34)CC2)cs1 [CBK284987] | 104 |

| SMILES | viability at 28.5 h, 10 µM [%] |
| --- | --- |
| O=C1CCC(C(=O)N2CCCC(c3cc4ccccc4cn3)C2)CC1 (stereo not shown) [CBK284989] | 102 |
| O=C(c1c(F)cccc1F)N1C2CCC1c1snnc1C2 (stereo not shown) [CBK284990] | 91.5 |
| CC(=O)N1Cc2ccccc2OC2(CCCN(C(=O)C3CC3)C2)C1 (stereo not shown) [CBK284991] | 97.1 |
| O=C(c1ccco1)N1CCN(C2C3CCCC2CNC3)CC1 (stereo not shown) [CBK284992] | 94.4 |
| CCn1cncc1CN1CCCC(c2cc3cccnc3[nH]2)C1 (stereo not shown) [CBK284993] | 98.5 |
| CC(C)C(=O)N1CCCC(c2cc3cccnc3[nH]2)C1 (stereo not shown) [CBK284994] | 96.4 |
| Cc1nc(C)c(C(=O)N2CCCC(c3cc4cccnc4[nH]3)C2)s1 (stereo not shown) [CBK284995] | 97.4 |
| CC(CC(=O)N1CCCC(c2cc3cccnc3[nH]2)C1)n1cccn1 (stereo not shown) [CBK284996] | 86.2 |
| Cc1nc(C)c(C(=O)N2CCC(c3cc4cccnc4[nH]3)CC2)s1 [CBK284998] | 88.5 |
| O=C(Cc1ccsc1)N1CCC(c2cc3cccnc3[nH]2)CC1 [CBK285000] | 85.6 |
| CCC(C)NC(=O)Cn1c(C2CCNCC2)cc2cccnc21 (stereo not shown) [CBK285003] | 103 |
| Cc1csc(C(Cc2cccs2)NC(=O)Cc2ccccn2)n1 (stereo not shown) [CBK285005] | 94.3 |
| CCC(=O)N1C[C@@H](N(C)C)[C@H](c2cn(C)c3ccccc23)C1 [CBK285008] | 91.3 |
| COCC(C)NC(=O)Cn1cccc2cc(C(F)F)nc1-2 (stereo not shown) [CBK285011] | 104 |
| CC(C)N(C(=O)Cn1cccc2cc(C(F)F)nc1-2)C(C)C [CBK285012] | 85.5 |
| O=C(Cn1c(C2CCNCC2)cc2cccnc21)N1CCCC1 [CBK285013] | 96.3 |
| O=C(Cn1c(C2CCCNC2)cc2cccnc21)N1CCCCCC1 (stereo not shown) [CBK285014] | 86.3 |
| Nc1cc2ccccc2nc1C1CCN(C(=O)C2CC=CCC2)CC1 (stereo not shown) [CBK285016] | 88.9 |
| Cc1nccn1CC1(O)CCN(Cc2cn(C)c3ccccc23)CC1 [CBK285017] | 102 |
